Reference: article PMC7385619, “A triple action CDK4/6-PI3K-BET inhibitor with augmented cancer cell cytotoxicity” (Cell Discovery, 2020)
Like-named read-outs stand apart in the source and are kept apart here.

What was measured:
Assay in all cases: KINOMEscan assay (Eurofins DiscoverX)
Assay type in all cases: binding
[1] = biological target: T1, kinome (kinase panel) (Homo sapiens, UniProt Q5S007, G2019S); conditions: read-out: Percent Control
T1 construct: purchased Eurofins DiscoverX

[2] = biological target: T2, kinome (kinase panel) (Homo sapiens, UniProt O14965); conditions: AURKA; 1000 nM; read-out: Percent Control
T2 construct: purchased Eurofins DiscoverX

[3] = biological target: T3, kinome (kinase panel) (Homo sapiens, UniProt Q9BXA7); conditions: TSSK1B; 1000 nM; read-out: Percent Control
T3 construct: purchased Eurofins DiscoverX

[4] = biological target: T4, kinome (kinase panel) (Homo sapiens, UniProt P08069); conditions: IGF1R; 1000 nM; read-out: Percent Control
T4 construct: purchased Eurofins DiscoverX

[5] = biological target: T5, kinome (kinase panel) (Homo sapiens, UniProt P04049); conditions: RAF1; 1000 nM; read-out: Percent Control
T5 construct: purchased Eurofins DiscoverX

[6] = biological target: T6, kinome (kinase panel) (Homo sapiens, UniProt O75460); conditions: ERN1; 1000 nM; read-out: Percent Control
T6 construct: purchased Eurofins DiscoverX

[7] = biological target: T7, kinome (kinase panel) (Homo sapiens, UniProt O94921); conditions: PFTK1 (Entrez CDK14); 1000 nM; read-out: Percent Control
T7 construct: purchased Eurofins DiscoverX

[8] = biological target: T8, kinome (kinase panel) (Homo sapiens, UniProt Q92918); conditions: HPK1 (Entrez MAP4K1); 1000 nM; read-out: Percent Control
T8 construct: purchased Eurofins DiscoverX

[9] = biological target: T9, kinome (kinase panel) (Homo sapiens, UniProt Q13523); conditions: PRP4 (Entrez PRPF4B); 1000 nM; read-out: Percent Control
T9 construct: purchased Eurofins DiscoverX

[10] = biological target: T10, kinome (kinase panel) (Homo sapiens, UniProt P51617); conditions: IRAK1; 1000 nM; read-out: Percent Control
T10 construct: purchased Eurofins DiscoverX

[11] = biological target: T11, kinome (kinase panel) (Homo sapiens, UniProt O43683); conditions: BUB1; 1000 nM; read-out: Percent Control
T11 construct: purchased Eurofins DiscoverX
T11 sequence (O43683 whole entry): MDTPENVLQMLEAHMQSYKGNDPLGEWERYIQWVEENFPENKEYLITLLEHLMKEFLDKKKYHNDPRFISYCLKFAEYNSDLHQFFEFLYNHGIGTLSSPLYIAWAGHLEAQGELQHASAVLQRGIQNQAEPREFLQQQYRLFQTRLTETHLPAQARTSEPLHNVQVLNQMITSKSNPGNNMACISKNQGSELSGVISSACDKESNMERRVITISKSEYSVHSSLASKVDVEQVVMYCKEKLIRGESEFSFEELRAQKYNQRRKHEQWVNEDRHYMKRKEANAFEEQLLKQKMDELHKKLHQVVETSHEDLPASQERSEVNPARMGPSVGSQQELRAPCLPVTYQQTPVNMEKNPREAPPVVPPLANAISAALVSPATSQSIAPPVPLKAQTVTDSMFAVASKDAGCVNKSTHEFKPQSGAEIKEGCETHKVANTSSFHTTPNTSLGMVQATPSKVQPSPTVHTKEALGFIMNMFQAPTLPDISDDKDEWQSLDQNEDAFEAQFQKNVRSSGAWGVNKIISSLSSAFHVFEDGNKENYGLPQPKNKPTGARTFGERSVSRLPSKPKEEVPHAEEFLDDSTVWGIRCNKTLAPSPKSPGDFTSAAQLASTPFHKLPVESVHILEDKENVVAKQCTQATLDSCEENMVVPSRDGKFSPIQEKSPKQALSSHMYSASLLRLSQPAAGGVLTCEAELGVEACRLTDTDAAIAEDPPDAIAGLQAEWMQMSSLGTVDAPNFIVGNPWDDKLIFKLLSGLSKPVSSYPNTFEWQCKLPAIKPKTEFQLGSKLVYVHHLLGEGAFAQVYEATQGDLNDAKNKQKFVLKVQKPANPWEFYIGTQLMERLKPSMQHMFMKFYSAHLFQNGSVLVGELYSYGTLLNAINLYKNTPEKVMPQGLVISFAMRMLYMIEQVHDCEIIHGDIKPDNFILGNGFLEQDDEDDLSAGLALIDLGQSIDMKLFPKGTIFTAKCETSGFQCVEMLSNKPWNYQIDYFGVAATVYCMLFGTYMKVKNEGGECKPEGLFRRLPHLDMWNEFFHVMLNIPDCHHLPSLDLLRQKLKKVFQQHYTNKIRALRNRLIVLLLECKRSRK

[12] = biological target: T12, kinome (kinase panel) (Homo sapiens, UniProt Q9HBY8); conditions: SGK2; 1000 nM; read-out: Percent Control
T12 construct: purchased Eurofins DiscoverX

[13] = biological target: T13, kinome (kinase panel) (Homo sapiens, UniProt P0C1S8); conditions: WEE2; 1000 nM; read-out: Percent Control
T13 construct: purchased Eurofins DiscoverX

[14] = biological target: T14, kinome (kinase panel) (Homo sapiens, UniProt O00444); conditions: PLK4; 1000 nM; read-out: Percent Control
T14 construct: purchased Eurofins DiscoverX

[15] = biological target: T15, kinome (kinase panel) (Homo sapiens, UniProt P42336, E545K); conditions: read-out: Percent Control
T15 construct: purchased Eurofins DiscoverX
T15 sequence (P42336 whole entry E545K): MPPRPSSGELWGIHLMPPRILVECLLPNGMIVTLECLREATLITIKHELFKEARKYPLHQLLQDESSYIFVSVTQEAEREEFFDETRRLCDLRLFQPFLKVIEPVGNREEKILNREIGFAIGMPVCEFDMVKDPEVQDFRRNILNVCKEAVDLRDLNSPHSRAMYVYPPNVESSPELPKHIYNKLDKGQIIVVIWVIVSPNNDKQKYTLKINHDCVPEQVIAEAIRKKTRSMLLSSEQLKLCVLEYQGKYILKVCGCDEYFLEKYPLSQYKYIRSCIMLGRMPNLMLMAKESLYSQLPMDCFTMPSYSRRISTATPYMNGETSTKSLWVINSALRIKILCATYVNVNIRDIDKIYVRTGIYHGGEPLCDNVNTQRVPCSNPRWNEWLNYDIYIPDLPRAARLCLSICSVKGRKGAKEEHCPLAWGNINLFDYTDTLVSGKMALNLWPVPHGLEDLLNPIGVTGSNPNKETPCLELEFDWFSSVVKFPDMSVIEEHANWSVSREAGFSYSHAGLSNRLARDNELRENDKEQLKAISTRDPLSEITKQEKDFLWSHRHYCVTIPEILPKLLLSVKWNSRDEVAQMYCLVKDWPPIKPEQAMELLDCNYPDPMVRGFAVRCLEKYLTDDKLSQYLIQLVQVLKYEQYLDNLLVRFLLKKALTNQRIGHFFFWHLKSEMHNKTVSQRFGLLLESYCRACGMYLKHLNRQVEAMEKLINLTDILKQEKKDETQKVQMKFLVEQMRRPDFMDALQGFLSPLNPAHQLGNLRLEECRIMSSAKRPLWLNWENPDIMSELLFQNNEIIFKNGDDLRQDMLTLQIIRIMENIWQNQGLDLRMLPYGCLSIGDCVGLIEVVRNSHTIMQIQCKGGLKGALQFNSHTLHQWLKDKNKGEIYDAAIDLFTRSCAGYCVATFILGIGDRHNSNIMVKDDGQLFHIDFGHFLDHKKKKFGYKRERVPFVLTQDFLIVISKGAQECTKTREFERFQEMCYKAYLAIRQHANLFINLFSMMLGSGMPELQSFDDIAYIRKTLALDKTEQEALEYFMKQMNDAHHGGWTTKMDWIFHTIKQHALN

[16] = biological target: T16, kinome (kinase panel) (Homo sapiens, UniProt P31152); conditions: ERK4 (Entrez MAPK4); 1000 nM; read-out: Percent Control
T16 construct: purchased Eurofins DiscoverX
T16 sequence (P31152 whole entry): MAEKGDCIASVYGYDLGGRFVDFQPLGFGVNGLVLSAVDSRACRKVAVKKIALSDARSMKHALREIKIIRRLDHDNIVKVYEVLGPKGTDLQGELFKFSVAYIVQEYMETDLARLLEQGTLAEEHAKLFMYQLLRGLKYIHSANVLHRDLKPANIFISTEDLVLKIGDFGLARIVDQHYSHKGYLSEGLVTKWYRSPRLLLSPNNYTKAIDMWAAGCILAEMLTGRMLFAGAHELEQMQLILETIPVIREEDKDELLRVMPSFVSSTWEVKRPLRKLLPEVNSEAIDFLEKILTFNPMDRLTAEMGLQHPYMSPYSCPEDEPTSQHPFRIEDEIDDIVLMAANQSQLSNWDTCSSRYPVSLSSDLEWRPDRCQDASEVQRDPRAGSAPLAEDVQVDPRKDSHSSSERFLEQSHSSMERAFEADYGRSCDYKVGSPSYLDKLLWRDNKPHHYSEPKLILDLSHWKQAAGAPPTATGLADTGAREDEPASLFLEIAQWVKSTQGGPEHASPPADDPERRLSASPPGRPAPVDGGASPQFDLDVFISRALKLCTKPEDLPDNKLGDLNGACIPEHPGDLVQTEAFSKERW

[17] = biological target: T17, kinome (kinase panel) (Homo sapiens, UniProt Q86Z02); conditions: HIPK1; 1000 nM; read-out: Percent Control
T17 construct: purchased Eurofins DiscoverX

[18] = biological target: T18, kinome (kinase panel) (Homo sapiens, UniProt Q8N752); conditions: CSNK1A1L; 1000 nM; read-out: Percent Control
T18 construct: purchased Eurofins DiscoverX

[19] = biological target: T19, kinome (kinase panel) (Homo sapiens, UniProt P27448); conditions: MARK3; 1000 nM; read-out: Percent Control
T19 construct: purchased Eurofins DiscoverX

[20] = biological target: T20, kinome (kinase panel) (Homo sapiens, UniProt P00519, Q252H)
T20 construct: purchased Eurofins DiscoverX

[21] = biological target: T21, kinome (kinase panel) (Homo sapiens, UniProt P07949, V804M); conditions: read-out: Percent Control
T21 construct: purchased Eurofins DiscoverX

[22] = biological target: T22, kinome (kinase panel) (Homo sapiens, UniProt O14936); conditions: CASK; 1000 nM; read-out: Percent Control
T22 construct: purchased Eurofins DiscoverX

[23] = biological target: T23, kinome (kinase panel) (Homo sapiens, UniProt Q9P1W9); conditions: PIM2; 1000 nM; read-out: Percent Control
T23 construct: purchased Eurofins DiscoverX

[24] = biological target: T24, kinome (kinase panel) (Homo sapiens, UniProt Q9BUB5); conditions: MKNK1; 1000 nM; read-out: Percent Control
T24 construct: purchased Eurofins DiscoverX

[25] = biological target: T25, kinome (kinase panel) (Homo sapiens, UniProt Q13554); conditions: CAMK2B; 1000 nM; read-out: Percent Control
T25 construct: purchased Eurofins DiscoverX
T25 sequence (Q13554 whole entry): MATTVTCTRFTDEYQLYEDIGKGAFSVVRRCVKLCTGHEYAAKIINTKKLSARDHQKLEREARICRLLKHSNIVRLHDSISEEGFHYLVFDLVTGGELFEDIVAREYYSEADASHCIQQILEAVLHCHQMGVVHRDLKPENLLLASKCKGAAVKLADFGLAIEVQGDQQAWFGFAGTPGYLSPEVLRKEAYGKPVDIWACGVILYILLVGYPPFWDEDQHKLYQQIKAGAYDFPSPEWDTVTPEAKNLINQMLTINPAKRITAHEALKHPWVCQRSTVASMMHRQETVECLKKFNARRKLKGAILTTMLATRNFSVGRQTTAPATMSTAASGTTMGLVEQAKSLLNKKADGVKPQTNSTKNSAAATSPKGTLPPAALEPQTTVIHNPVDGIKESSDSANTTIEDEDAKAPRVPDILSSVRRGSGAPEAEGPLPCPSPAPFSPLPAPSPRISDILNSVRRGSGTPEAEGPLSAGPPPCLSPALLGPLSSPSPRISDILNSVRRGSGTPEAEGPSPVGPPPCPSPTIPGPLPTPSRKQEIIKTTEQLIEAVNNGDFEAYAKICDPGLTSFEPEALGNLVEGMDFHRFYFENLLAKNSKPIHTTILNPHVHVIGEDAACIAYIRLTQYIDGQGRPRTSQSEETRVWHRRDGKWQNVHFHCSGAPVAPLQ

[26] = biological target: T26, kinome (kinase panel) (Homo sapiens, UniProt Q96J92); conditions: WNK4; 1000 nM; read-out: Percent Control
T26 construct: purchased Eurofins DiscoverX

[27] = biological target: T27, kinome (kinase panel) (Homo sapiens, UniProt Q96PN8); conditions: TSSK3; 1000 nM; read-out: Percent Control
T27 construct: purchased Eurofins DiscoverX

[28] = biological target: T28, kinome (kinase panel) (Homo sapiens, UniProt Q16816); conditions: PHKG1; 1000 nM; read-out: Percent Control
T28 construct: purchased Eurofins DiscoverX

[29] = biological target: T29, kinome (kinase panel) (Homo sapiens, UniProt Q13153); conditions: PAK1; 1000 nM; read-out: Percent Control
T29 construct: purchased Eurofins DiscoverX

[30] = biological target: T30, kinome (kinase panel) (Homo sapiens, UniProt P07948); conditions: LYN; 1000 nM; read-out: Percent Control
T30 construct: purchased Eurofins DiscoverX
T30 sequence (P07948 whole entry): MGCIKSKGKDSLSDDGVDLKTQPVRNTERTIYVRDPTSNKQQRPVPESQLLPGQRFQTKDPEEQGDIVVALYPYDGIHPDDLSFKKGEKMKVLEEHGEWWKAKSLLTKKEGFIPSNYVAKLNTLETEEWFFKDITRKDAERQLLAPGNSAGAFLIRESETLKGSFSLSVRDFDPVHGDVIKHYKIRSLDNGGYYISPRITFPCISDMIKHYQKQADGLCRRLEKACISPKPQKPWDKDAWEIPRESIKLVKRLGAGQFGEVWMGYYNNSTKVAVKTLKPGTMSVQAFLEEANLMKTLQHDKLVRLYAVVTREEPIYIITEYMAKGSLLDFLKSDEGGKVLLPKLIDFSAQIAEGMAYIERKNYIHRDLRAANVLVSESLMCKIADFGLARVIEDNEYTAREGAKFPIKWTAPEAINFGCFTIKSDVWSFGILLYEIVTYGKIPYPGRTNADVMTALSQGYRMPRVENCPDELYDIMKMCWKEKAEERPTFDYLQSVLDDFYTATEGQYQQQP

[31] = biological target: T31, kinome (kinase panel) (Homo sapiens, UniProt Q7L7X3); conditions: TAOK1; 1000 nM; read-out: Percent Control
T31 construct: purchased Eurofins DiscoverX

[32] = biological target: T32, kinome (kinase panel) (Homo sapiens, UniProt Q9UK32); conditions: 1000 nM, read-out: Percent Control
T32 construct: purchased Eurofins DiscoverX
T32 sequence (Q9UK32 whole entry): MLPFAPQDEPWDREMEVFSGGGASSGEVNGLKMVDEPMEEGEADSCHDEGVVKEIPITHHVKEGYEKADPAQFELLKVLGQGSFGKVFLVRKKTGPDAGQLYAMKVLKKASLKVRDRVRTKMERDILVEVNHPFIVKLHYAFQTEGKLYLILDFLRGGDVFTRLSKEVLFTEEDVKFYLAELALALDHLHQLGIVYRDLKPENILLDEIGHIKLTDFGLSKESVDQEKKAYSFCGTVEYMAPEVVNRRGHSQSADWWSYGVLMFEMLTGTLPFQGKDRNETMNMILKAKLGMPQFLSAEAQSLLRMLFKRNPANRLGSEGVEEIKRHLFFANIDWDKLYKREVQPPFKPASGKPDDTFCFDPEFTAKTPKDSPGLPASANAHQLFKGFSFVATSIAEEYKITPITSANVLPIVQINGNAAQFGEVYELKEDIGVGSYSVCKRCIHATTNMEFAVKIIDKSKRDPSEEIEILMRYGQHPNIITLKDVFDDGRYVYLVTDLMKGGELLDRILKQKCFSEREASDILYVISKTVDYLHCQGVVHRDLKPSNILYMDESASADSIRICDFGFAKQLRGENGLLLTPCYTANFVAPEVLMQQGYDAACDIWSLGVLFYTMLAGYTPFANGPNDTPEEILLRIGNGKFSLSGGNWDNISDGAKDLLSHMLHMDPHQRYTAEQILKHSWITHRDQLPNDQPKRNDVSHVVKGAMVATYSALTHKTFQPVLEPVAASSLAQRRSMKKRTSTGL

[33] = biological target: T33, kinome (kinase panel) (Homo sapiens, UniProt O15264); conditions: p38-delta (Entrez MAPK13); 1000 nM; read-out: Percent Control
T33 construct: purchased Eurofins DiscoverX
T33 sequence (O15264 whole entry): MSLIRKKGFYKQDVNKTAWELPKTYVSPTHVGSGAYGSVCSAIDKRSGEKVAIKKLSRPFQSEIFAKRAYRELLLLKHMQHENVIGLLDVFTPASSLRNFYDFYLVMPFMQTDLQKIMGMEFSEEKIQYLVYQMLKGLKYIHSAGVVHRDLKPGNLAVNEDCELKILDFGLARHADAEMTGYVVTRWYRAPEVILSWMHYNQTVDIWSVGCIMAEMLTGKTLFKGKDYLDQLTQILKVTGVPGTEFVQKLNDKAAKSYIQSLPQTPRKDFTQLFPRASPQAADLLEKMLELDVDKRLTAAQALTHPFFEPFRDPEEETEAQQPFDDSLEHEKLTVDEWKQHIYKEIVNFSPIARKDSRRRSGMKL

SMILES: CN(C)C(=O)c1cc2cnc(Nc3ccc(-c4csc5c(=O)cc(N6CCOCC6)oc45)cc3)nc2n1C1CCCC1 [SRX3177]
- remaining binding at 1 µM [1]: 44%
- remaining binding at 1 µM [2]: 0%
- remaining binding at 1 µM [3]: 90%
- remaining binding at 1 µM [4]: 100%
- remaining binding at 1 µM [5]: 100%
- remaining binding at 1 µM [6]: 85%
- remaining binding at 1 µM [7]: 73%
- remaining binding at 1 µM [8]: 100%
- remaining binding at 1 µM [9]: 58%
- remaining binding at 1 µM [10]: 32%
- remaining binding at 1 µM [11]: 50%
- remaining binding at 1 µM [12]: 65%
- remaining binding at 1 µM [13]: 100%
- remaining binding at 1 µM [14]: 60%
- remaining binding at 1 µM [15]: 45%
- remaining binding at 1 µM [16]: 96%
- remaining binding at 1 µM [17]: 86%
- remaining binding at 1 µM [18]: 100%
- remaining binding at 1 µM [19]: 85%
- Percent Control [20]: 58
- remaining binding at 1 µM ([20]; read-out: Percent Control): 72%
- remaining binding at 1 µM [21]: 100%
- remaining binding at 1 µM [22]: 35%
- remaining binding at 1 µM [23]: 100%
- remaining binding at 1 µM [24]: 42%
- remaining binding at 1 µM [25]: 82%
- remaining binding at 1 µM [26]: 90%
- remaining binding at 1 µM [27]: 100%
- remaining binding at 1 µM [28]: 88%
- remaining binding at 1 µM [29]: 90%
- remaining binding at 1 µM [30]: 94%
- remaining binding at 1 µM [31]: 14%
- remaining binding at 1 µM ([32]; RSK4(Kin.Dom.1-N-terminal) (RPS6KA6)): 90%
- remaining binding at 1 µM ([32]; RSK4(Kin.Dom.2-C-terminal) (RPS6KA6)): 90%
- remaining binding at 1 µM [33]: 97%
